Experimental data: BigSolDB 2.1

Cc1ccc(-c2cc(C(F)(F)F)nn2-c2ccc(S(N)(=O)=O)cc2)cc1
solubility (mole fraction) (in NMP, 293.2 K): 0.0593 | solubility (mole fraction) (in NMP, 298.2 K): 0.0672 | solubility (mole fraction) (in NMP, 303.2 K): 0.0776 | solubility (mole fraction) (in NMP, 308.2 K): 0.0799 | solubility (mole fraction) (in NMP, 313.2 K): 0.0917 | solubility (mole fraction) (in isopropanol, 293.2 K): 0.00851 | solubility (mole fraction) (in isopropanol, 298.2 K): 0.00902 | solubility (mole fraction) (in isopropanol, 303.2 K): 0.0156 | solubility (mole fraction) (in isopropanol, 308.2 K): 0.0198 | solubility (mole fraction) (in isopropanol, 313.2 K): 0.0233
